Results on one compound are retold here after patent publication US10752616B2, “Bicycloheteroaryl-heteroaryl-benzoic acid compounds as retinoic acid receptor beta (RARβ) agonists” (King's College London, priority 2014, dated 2020).

For orientation: EC50 means the concentration that produces a half-maximal response.

Assay [1] deals with T1, RARα (Homo sapiens (Human), UniProt P10276). Briefly: Transactivation assay, human RARα. Format: cell-based. The note with it: Table 1; all human data. On the procedure: (§1) Transcriptional transactivation assays were performed with gal4 fusion receptor constructs, created using each of the RAR ligand binding domains of either mouse or human, co-transfected with the pFR-luc (Stratagene) reporter construct in COS-7 cells.
(§2) Briefly, on day 1, 96 well plates were seeded with 8000 cells per well then left to recover overnight. On day 2, the cells were co-transfected with 100 ng of reporter plasmid and 10 ng of the appropriate receptor plasmid per well using lipofectamine (Invitrogen). On day 3, the lipofectamine containing media was replaced by a DMEM without phenol red, followed by the addition of test compound dissolved in 1 μL of DMSO to each well's 100 μL total volume. Finally, on day 4, the cells were lysed and their luciferase substrate was provided by the BrightGlo™ reagent (Promega), the plates were then read on the MicroBeta TriLux™ (Perkin Elmer).
(§3) Data for test compounds are quoted as EC50 values. Where replicate data has been generated, the data are quoted as the mean EC50 from the separate experiments.
Target sequence in this assay (P10276 183-417): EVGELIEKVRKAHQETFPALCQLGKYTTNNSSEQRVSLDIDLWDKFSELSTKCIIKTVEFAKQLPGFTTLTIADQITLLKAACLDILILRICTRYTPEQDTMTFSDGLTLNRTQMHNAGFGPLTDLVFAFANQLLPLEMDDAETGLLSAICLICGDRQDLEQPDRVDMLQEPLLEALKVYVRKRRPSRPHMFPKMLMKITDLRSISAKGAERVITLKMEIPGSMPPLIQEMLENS

Assay [2] has as its system cortex explants. Put plainly: Neurite outgrowth from cultured cortex of treated lesioned animals. Format: cell-based, rat. The settings on record: cortex from lesioned rats treated in vivo. On the procedure:
When pieces of cortex from these RARβ agonist treated animals were cultured, neurite outgrowth was observed, in contrast to cortex from control lesioned animals.
(§4) Cerebellar neurons isolated from post-natal day 3 rat pups were cultured over monolayers of parental 3T3 cells in control media, or media supplemented with a recombinant MAG-Fc chimera (R&D Systems) used at a final concentration of 20 μg/mL MAG-Fc. The monolayers were established for 24 hours prior to addition of the neurons and the co-cultures were maintained for approximately 21 hours. Following careful fixation with 4% paraformaldehyde, the neurons were immuno-stained with a GAP-43 antibody (from Graham Wilkin, Imperial College), dilution of 1:500, and the mean length of the longest neurite per cell was measured for approximately 120-150 neurons as previously described (see, e.g., Williams et al., 2005). DRG and cortical explants were obtained from adult rats, they were cultured in cellogen as previously described (see, e.g., Corcoran and Maden, 1999). Three explants per treatment were used. Neurite outgrowth was assessed 3 days later by immunohistochemistry with NF200 (Sigma, dilution of 1:200). The average lengths of the neurites were measured using image pro plus software. Media consisted of DMEM-F12 (Invitrogen) containing N2 (Invitrogen) supplemented with glucose (33 mM) and glutamine (2 mM).

Assay [3] concerns the target T2, RARγ (Homo sapiens (Human), UniProt P13631). The settings on record: Bernard et al., 1992; Delescluse et al., 1991; cited from earlier work.
Target sequence in this assay (P13631 whole entry, species assumed): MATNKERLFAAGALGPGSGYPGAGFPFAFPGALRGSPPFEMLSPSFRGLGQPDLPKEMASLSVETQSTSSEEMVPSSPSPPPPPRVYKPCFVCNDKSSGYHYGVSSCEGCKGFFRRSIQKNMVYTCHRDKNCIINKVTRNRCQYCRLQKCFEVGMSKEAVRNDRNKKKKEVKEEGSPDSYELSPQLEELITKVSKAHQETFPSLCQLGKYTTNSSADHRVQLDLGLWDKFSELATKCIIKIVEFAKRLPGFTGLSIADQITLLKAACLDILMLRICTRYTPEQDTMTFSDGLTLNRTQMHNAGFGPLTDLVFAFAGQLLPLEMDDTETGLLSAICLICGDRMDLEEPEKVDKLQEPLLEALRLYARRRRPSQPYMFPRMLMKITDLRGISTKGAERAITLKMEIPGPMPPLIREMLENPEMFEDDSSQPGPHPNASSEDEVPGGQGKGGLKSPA
The subject of assay [4] is cerebellar neurons. Put plainly: Neurite outgrowth assay, cerebellar neurons in the presence of myelin/MAG. The class given is cell-based, rat. As to the method: as §4
For assay [5], the target named is RARβ (Homo sapiens (Human), UniProt P10826). Put plainly: Transactivation assay, human RARβ. The class given is cell-based. The settings on record: Table 1; all human data; read-out: RARβ potency EC50. On the procedure:
as §1, §2, §3

Assay [6] relates to phospho-Akt. Put plainly: Western blot of cerebellar cultures for phospho-Akt. The class given is cell-based, rat. The note with it: cerebellar cultures treated with 1 μM. (In general: A western blot detects proteins with antibodies after separation by electrophoresis.)
The target of assay [7] is T1, RARα. The settings on record: Bernard et al., 1992; Delescluse et al., 1991; cited from earlier work.
Target sequence in this assay (P10276 whole entry, species assumed, the tested form may be a part): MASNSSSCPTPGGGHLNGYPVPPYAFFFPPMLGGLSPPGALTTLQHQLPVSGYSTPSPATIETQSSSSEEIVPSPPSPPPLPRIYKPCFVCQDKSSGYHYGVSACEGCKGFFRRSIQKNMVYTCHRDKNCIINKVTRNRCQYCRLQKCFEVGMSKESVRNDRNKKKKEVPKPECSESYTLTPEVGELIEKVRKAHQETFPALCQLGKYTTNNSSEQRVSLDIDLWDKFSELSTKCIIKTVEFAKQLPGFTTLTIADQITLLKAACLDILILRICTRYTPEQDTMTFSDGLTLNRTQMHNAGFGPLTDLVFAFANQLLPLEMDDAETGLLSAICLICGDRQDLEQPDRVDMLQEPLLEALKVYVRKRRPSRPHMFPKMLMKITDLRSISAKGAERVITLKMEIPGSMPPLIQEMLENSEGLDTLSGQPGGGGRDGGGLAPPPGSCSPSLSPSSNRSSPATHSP
Assay [8] has as its target T2, RARγ. Put plainly: Transactivation assay, human RARγ. The note with it: Table 1; all human data. The class given is cell-based. On the procedure: as §1, §2, §3
Target sequence in this assay (P13631 185-419): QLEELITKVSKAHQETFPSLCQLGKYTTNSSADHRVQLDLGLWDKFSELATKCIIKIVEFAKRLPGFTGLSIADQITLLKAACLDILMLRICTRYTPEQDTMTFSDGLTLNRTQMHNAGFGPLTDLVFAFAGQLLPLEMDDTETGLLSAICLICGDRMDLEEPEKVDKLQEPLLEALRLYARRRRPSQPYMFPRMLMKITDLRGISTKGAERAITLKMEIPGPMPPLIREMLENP
Assay [9] deals with rats with crushed corticospinal tract (CST). Briefly: Corticospinal tract (CST) crush at C4 in rats, i.c.v. treatment; tracing and behavioural tests. Format: in vivo. The note with it: rat. As to the method:
FIGS. 1A and 1B show two graphs of the number of rat footslips as a function of the number of weeks after lesion, for grid task (FIG. 1A) and beam task (FIG. 1B).
All animal experiments were carried out under UK home office regulations. Dorsal column lesions were performed on adult male rats as previously described (see, e.g., Bradbury et al., 2002). […] The pumps were placed subcutaneously and connected to a brain infusion catheter (Alzet™), which was inserted into the lateral ventricle (Bregma coordinates: rostrocaudal: −0.8 mm, mediolateral: −1.5 mm and dorsoventral: −4.5 mm). […] The dose was based previous in vivo studies on activation of RARα and RARβ signalling in the adult rat brain (see, e.g., Goncalves et al., 2009). Animals which underwent behavioural studies and subsequent tracing (n=6 per treatment) were kept for six weeks before being sacrificed with a lethal injection of pentobarbital and transcardially perfused with 4% PFA. Dissected tissue (cervical and lumbar spinal cord) was processed for immunofluoresence.
Descendent corticospinal tract axons were anterogradely traced after the dorsal column crush was performed by injected BDA (10% in PBS, Mw10K from Molecular Probes) into the motor cortex as previously described (see, e.g., Yip et al., 2006). Six injections were done in the right cortex (0.5 μL of BDA/injection point). Animals (n=6 per treatment) were perfused and the spinal cord was transferred to PBS (plus 0.1% sodium azide) and embedded in gelatin (10%, 300 bloom; Sigma, Poole, UK). Gelatin blocks were hardened in 4% paraformaldehyde, and 40 μm free-floating serial transverse sections were cut on a vibratome (Leica, Nussloch, Germany) and collected in 24-well plates containing PBS (plus 0.1% sodium azide).
BDA was detected using the tyramide amplification kit (Perkin-Elmer) coupled with extra-avidin-FITC (Amersham Pharmacia Biotech, UK, 1:500). All BDA-labelled fibres observed within a 1-mm square grid were counted at measured intervals from 5 mm above to 5 mm below the lesion site by an experimenter, blinded to treatment.
CST neurons were labelled by retrograde tracing injecting 2 μL of 5% Fluorogold (FG, Molecular Probes) 2 mm deep into the cervical spinal cord (C3-C4) at a rate of 0.5 μL/minute (n=3 rats per group). In sham animals, FG was injected 0.5 mm bilateral to the medial line of spinal cord (1 μL per side), and in lesioned animals FG (2 μL) was injected into the injury. After 14 days, the cortices were fixed for 2 hours in 4% paraformaldehyde (PFA), embedded in OCT compound and stored frozen. Sagittal sections (12 μm) were cut and 4 sequential slides containing 2 sections from lateral 3.4-3.9 mm were taken for analysis (see, e.g., Paxinos and Watson, 2002).
Immunohistochemistry was carried out using anti-rabbit phospho-Akt (Cell Signalling technology, dilution of 1:100). Secondary antibody used was anti-rabbit Cy3 conjugated (Jackson, used at 1:1000). Images were captured at 100× magnification using a Roperscientific digital camera.
The behavioural tests were carried out as previously described (see, e.g., Bradbury et al., 2002). Rats (n=6 per treatment group) were first trained for two weeks before surgery to perform grid walk and beam walk; they were then tested by an observer blinded to the experimental treatment once a week for five weeks after lesion.

In assay [10] the test system is rats with severed sensory roots. Briefly: Severed and re-implanted sensory roots (DRG, left forelimb) in rats; sticky tape tests. The class given is in vivo. The note with it: rat, 1 mg/kg two days after lesion, then three times a week. On the procedure: In another example of nerve injury, the four sensory roots from each of four DRG at the level of the left forelimb were severed and re-implanted into the spinal cord.
FIGS. 2A and 2B show two graphs of the time taken for rats to sense sticky tape (FIG. 2A) and to remove sticky tape (FIG. 2B) that is placed on its injured forepaw, as a function of the number of weeks after injury. Rats were treated with 1 mg/kg of the test compound or vehicle two days after lesion, and then three times a week for the period of the experiment. Error bars show SEM. ***P<0.001, students t test, n=3-4 rats for each treatment group. At weeks 3, 4, and 5, there was significant difference between the rats treated with RARβ agonist as compared to rats treated with other retinoid agonists and vehicle.

The mark [11] stands for this setting: i.c.v. 180 ng/kg/day for 14 days.

RARβ, sequence (P10826 183-417): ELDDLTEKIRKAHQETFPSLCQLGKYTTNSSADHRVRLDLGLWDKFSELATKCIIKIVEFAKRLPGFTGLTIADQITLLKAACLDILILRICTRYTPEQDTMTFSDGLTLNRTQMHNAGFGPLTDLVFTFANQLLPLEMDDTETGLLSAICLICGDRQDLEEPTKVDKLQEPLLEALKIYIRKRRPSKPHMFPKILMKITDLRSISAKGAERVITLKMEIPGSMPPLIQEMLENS

In the case of `COc1ccc(-c2ccc3cc(C(=O)O)ccc3c2)cc1C1(C)CCCCC1` [CD2019, 6-(4-methoxy-3-(1-methylcyclohexyl)phenyl)-2-naphthalenecarboxylic acid], the “Selectivity over RARα” value in assay [1] is 11-fold. The “Axon/neurite outgrowth from cultured adult cortex of treated animals” value in [2] was “did grow”. The “Selectivity RARβ over RARγ” value in assay [3] was 12 fold. Also, the “Neurite outgrowth of cerebellar neurons grown in the presence of myelin” value in [4] is “causes the outgrowth of neurites”. Also, the EC50 in assay [5] worked out at 0.83 nM. Besides, the “Increase in neuronal phospho-Akt (not total Akt) compared to control cultures” value in assay [6] is 4 fold. The “Selectivity RARβ over RARα” value in assay [7] is 5 fold. In assay [8], the “Selectivity over RARγ” value was 1.9-fold. Further, in assay [9], the “Phospho AKT in the injured CST neurons in vivo” value was “induced”. Also, the “BDA labelled CST axons crossing the lesion site” value in [9] (after 5 weeks) was “many axons were observed crossing the injury site”. Also, the “RARβ2 expression in CST neuronal cell bodies” value in [9] (applied to the lateral ventricle for 2 weeks) is “upregulation of RARβ 2”. The “Behavioural tests after 5 weeks (CST lesion)” value in assay [9] (grid walk and beam walk) was “performed as well as non-lesioned animals”. Further, in assay [9] (setting [11]), the “Functional recovery of the forelimb in beam task (footslips), time of recovery” value is given as 2 weeks post lesion and the “Functional recovery of the forelimb in grid task (footslips), time of recovery” value turned out to be 4 weeks post lesion. Also, in [10], the “Behavioural tests after 5 weeks (severed sensory roots)” value is “performed as well as non-lesioned animals”.
